{"source": "patent US20030181527A1", "about": "“Novel formulations of alpha-2,4-disulfophenyl-n-tert-butylnitrone” (priority 2000, published 2003)", "assay_type_in_all_cases": "physicochemical", "key": {"[1]": {"test": "Effect of chelator resin Chelex-100 on stability of concentrated aqueous solution", "conditions": "100 mg/ml, 5.3 mM phosphate, pH 8.0", "description": "A concentrated aqueous solution of α-(2,4-disulfophenyl)-N-tert-butylnitrone disodium salt (100 mg/ml) and disodium hydrogen phosphate (5.3 mM) at pH 8.0 was passed overnight through a column of the chelator resin, Chelex-100®. The resulting solution was placed in portions (8 ml) into 10 ml glass vials which were then sealed. The starting level of the aldehyde (II) was 0.20%. After two months at +40° C. and 75% relative humidity the concentration of the aldehyde (II) had increased to 2.3%. In a control experiment where the treatment with the resin was omitted, the level of the aldehyde (II) increased to 3.0%."}, "[2]": {"test": "Photodegradation of aqueous solutions under indoor light", "conditions": "400 mg/ml aqueous concentrate, room temperature, 8 hours, disodium salt"}, "[3]": {"test": "Effect of concentration on stability, carbonate-buffered solutions, 40 days +40° C.", "conditions": "50 mM sodium hydrogen carbonate; for Final Amount of Aldehyde (II): 40 days +40° C./75% RH", "description": "In an experiment, aqueous solutions of three different concentrations of α-(2,4-disulfophenyl)-N-tert-butylnitrone disodium salt buffered with sodium hydrogen carbonate (50 mM) were dispensed into 20 ml glass vials, sealed, and then stored for 40 days at +40° C. and 75% relative humidity."}, "[4]": {"test": "Effect of concentration on stability, unbuffered solutions at +5° C.", "description": "In a second study unbuffered aqueous solutions of α-(2,4-disulfophenyl)-N-tert-butylnitrone disodium salt (concentration either 100 mg/ml or 200 mg/ml) were dispensed into 50 ml glass vials and stored at +5° C."}, "[5]": {"test": "Effect of pH on stability of diluted 4 mg/ml solutions at room temperature", "excerpt": "The pH dependent degradation of aqueous solutions of α-(2,4-disulfophenyl)-N-tert-butylnitrone disodium salt has been extensively studied. […] Both solutions, which were obtained by appropriate dilution of a corresponding concentrate, were stored at room temperature under conditions that would reasonably simulate a diluted concentrate prepared ready for administration to patients."}, "[6]": {"test": "Effect on pH and stability of dilution of aqueous concentrates in 0.9% sodium chloride", "conditions": "400 mg/ml concentrate, 7 ml diluted in 500 ml 0.9% NaCl, room temperature", "description": "Three batches of an aqueous concentrate of α-(2,4-disulfophenyl)-N-tert-butylnitrone disodium salt (400 mg/ml) were prepared and adjusted to pH 8.5. One concentrate was unbuffered and the other two concentrates were buffered with respectively 2.6 or 26 mM disodium hydrogen phosphate. In each case a 7 ml portion of the concentrate was transferred into 0.9% sodium chloride solution (500 ml) contained in a PVC bag. The bags were the stored at room temperature, protected from light, for 48 hours. Samples were taken out at 0, 24 and 48 hours and analysed."}, "[7]": {"test": "Shelf life of the preferred concentrate formulation", "conditions": "400 mg/ml, 5 to 50 mM disodium hydrogen phosphate, pH 8.5, nitrogen purged, sealed 20 ml vials"}, "[8]": {"conditions": "unbuffered 100 mg/ml, 12 months"}, "[9]": {"conditions": "unbuffered 200 mg/ml, 12 months"}, "[10]": {"conditions": "4 mg/ml buffered with phosphate (0.53 mM), 0 days"}, "[11]": {"conditions": "4 mg/ml buffered with phosphate (0.53 mM), 1 day"}, "[12]": {"conditions": "4 mg/ml buffered with phosphate (0.53 mM), 2 days"}, "[13]": {"conditions": "4 mg/ml buffered with phosphate (0.53 mM), 5 days"}, "[14]": {"conditions": "4 mg/ml buffered with phosphate (0.53 mM), 7 days"}, "[15]": {"conditions": "4 mg/ml unbuffered solution, 0 days"}, "[16]": {"conditions": "4 mg/ml unbuffered solution, 1 day"}, "[17]": {"conditions": "4 mg/ml unbuffered solution, 2 days"}, "[18]": {"conditions": "4 mg/ml unbuffered solution, 5 days"}, "[19]": {"conditions": "4 mg/ml unbuffered solution, 7 days"}}, "note": "“Also recorded” adds a separate entry of the source.", "data": [{"smiles": "CC(C)(C)[N+]([O-])=Cc1ccc(S(=O)(=O)[O-])cc1S(=O)(=O)[O-].[Na+].[Na+]", "note": "[α-(2,4-disulfophenyl)-N-tert-butylnitrone disodium salt]", "values": [{"measurement": "Concentration of the aldehyde (II)", "setting": "[1]; Chelex-100 treated, 2 months +40° C./75% RH", "value": 2.3, "unit": "%"}, {"measurement": "Starting level of the aldehyde (II)", "setting": "[1]; Chelex-100 treated, start", "value": 0.20, "unit": "%"}, {"measurement": "Level of the aldehyde (II)", "setting": "[1]; resin treatment omitted, 2 months +40° C./75% RH", "value": 3.0, "unit": "%"}, {"measurement": "Photodegradation", "setting": "[2]", "value": "no photodegradation; also recorded: no degradation at all"}, {"measurement": "Final Amount of Aldehyde (II)", "setting": "[3]; 200 mg/ml", "value": 3.5, "unit": "Area %"}, {"measurement": "Initial Amount of Aldehyde (II)", "setting": "[3]; 200 mg/ml", "value": 1.7, "unit": "Area %"}, {"measurement": "Final Amount of Aldehyde (II)", "setting": "[3]; 300 mg/ml", "value": 3.2, "unit": "Area %"}, {"measurement": "Initial Amount of Aldehyde (II)", "setting": "[3]; 300 mg/ml", "value": 1.7, "unit": "Area %"}, {"measurement": "Final Amount of Aldehyde (II)", "setting": "[3]; 400 mg/ml", "value": 2.9, "unit": "Area %"}, {"measurement": "Initial Amount of Aldehyde (II)", "setting": "[3]; 400 mg/ml", "value": 1.8, "unit": "Area %"}, {"measurement": "Amount of Aldehyde (II)", "setting": "[4]; unbuffered 100 mg/ml, 0 months", "value": 0.2, "unit": "Area %"}, {"measurement": "pH", "setting": "[4]; unbuffered 100 mg/ml, 0 months", "value": 7.4}, {"measurement": "Amount of Aldehyde (II)", "setting": "[4]; unbuffered 100 mg/ml, 1 month", "value": 0.5, "unit": "Area %"}, {"measurement": "pH", "setting": "[4]; unbuffered 100 mg/ml, 1 month", "value": 7.5}, {"measurement": "Amount of Aldehyde (II)", "setting": "[4]; unbuffered 100 mg/ml, 3 months", "value": 1.0, "unit": "Area %"}, {"measurement": "pH", "setting": "[4]; unbuffered 100 mg/ml, 3 months", "value": 7.3}, {"measurement": "Amount of Aldehyde (II)", "setting": "[4]; unbuffered 100 mg/ml, 6 months", "value": 1.6, "unit": "Area %"}, {"measurement": "pH", "setting": "[4]; unbuffered 100 mg/ml, 6 months", "value": 7.1}, {"measurement": "Amount of Aldehyde (II)", "setting": "[4]; [8]", "value": 1.6, "unit": "Area %"}, {"measurement": "pH", "setting": "[4]; [8]", "value": 6.9}, {"measurement": "Amount of Aldehyde (II)", "setting": "[4]; unbuffered 200 mg/ml, 0 months", "value": 0.2, "unit": "Area %"}, {"measurement": "pH", "setting": "[4]; unbuffered 200 mg/ml, 0 months", "value": 7.6}, {"measurement": "Amount of Aldehyde (II)", "setting": "[4]; unbuffered 200 mg/ml, 1 month", "value": 0.4, "unit": "Area %"}, {"measurement": "pH", "setting": "[4]; unbuffered 200 mg/ml, 1 month", "value": 7.6}, {"measurement": "Amount of Aldehyde (II)", "setting": "[4]; unbuffered 200 mg/ml, 3 months", "value": 0.6, "unit": "Area %"}, {"measurement": "pH", "setting": "[4]; unbuffered 200 mg/ml, 3 months", "value": 7.4}, {"measurement": "Amount of Aldehyde (II)", "setting": "[4]; unbuffered 200 mg/ml, 6 months", "value": 0.8, "unit": "Area %"}, {"measurement": "pH", "setting": "[4]; unbuffered 200 mg/ml, 6 months", "value": 7.4}, {"measurement": "Amount of Aldehyde (II)", "setting": "[4]; [9]", "value": 1.1, "unit": "Area %"}, {"measurement": "pH", "setting": "[4]; [9]", "value": 6.9}, {"measurement": "Amount of Aldehyde (II)", "setting": "[5]; [10]", "value": 0.8, "unit": "Area %"}, {"measurement": "pH", "setting": "[5]; [10]", "value": 8.0}, {"measurement": "Amount of Aldehyde (II)", "setting": "[5]; [11]", "value": 0.9, "unit": "Area %"}, {"measurement": "pH", "setting": "[5]; [11]", "value": 7.9}, {"measurement": "Amount of Aldehyde (II)", "setting": "[5]; [12]", "value": 0.9, "unit": "Area %"}, {"measurement": "pH", "setting": "[5]; [12]", "value": 7.7}, {"measurement": "Amount of Aldehyde (II)", "setting": "[5]; [13]", "value": 1.0, "unit": "Area %"}, {"measurement": "pH", "setting": "[5]; [13]", "value": 7.5}, {"measurement": "Amount of Aldehyde (II)", "setting": "[5]; [14]", "value": 1.1, "unit": "Area %"}, {"measurement": "pH", "setting": "[5]; [14]", "value": 7.5}, {"measurement": "Amount of Aldehyde (II)", "setting": "[5]; [15]", "value": 0.9, "unit": "Area %"}, {"measurement": "pH", "setting": "[5]; [15]", "value": 6.8}, {"measurement": "Amount of Aldehyde (II)", "setting": "[5]; [16]", "value": 1.1, "unit": "Area %"}, {"measurement": "pH", "setting": "[5]; [16]", "value": 6.8}, {"measurement": "Amount of Aldehyde (II)", "setting": "[5]; [17]", "value": 1.2, "unit": "Area %"}, {"measurement": "pH", "setting": "[5]; [17]", "value": 6.8}, {"measurement": "Amount of Aldehyde (II)", "setting": "[5]; [18]", "value": 1.6, "unit": "Area %"}, {"measurement": "pH", "setting": "[5]; [18]", "value": 6.8}, {"measurement": "Amount of Aldehyde (II)", "setting": "[5]; [19]", "value": 2.0, "unit": "Area %"}, {"measurement": "pH", "setting": "[5]; [19]", "value": 6.7}, {"measurement": "Amount of Aldehyde (II)", "setting": "[6]; 2.6 mM phosphate, 0 hours", "value": 0.30, "unit": "Area %"}, {"measurement": "pH", "setting": "[6]; 2.6 mM phosphate, 0 hours", "value": 6.50}, {"measurement": "Amount of Aldehyde (II)", "setting": "[6]; 2.6 mM phosphate, 24 hours", "value": 0.44, "unit": "Area %"}, {"measurement": "pH", "setting": "[6]; 2.6 mM phosphate, 24 hours", "value": 6.69}, {"measurement": "Amount of Aldehyde (II)", "setting": "[6]; 2.6 mM phosphate, 48 hours", "value": 0.57, "unit": "Area %"}, {"measurement": "pH", "setting": "[6]; 2.6 mM phosphate, 48 hours", "value": 6.67}, {"measurement": "Amount of Aldehyde (II)", "setting": "[6]; 26 mM phosphate, 0 hours", "value": 0.17, "unit": "Area %"}, {"measurement": "pH", "setting": "[6]; 26 mM phosphate, 0 hours", "value": 7.43}, {"measurement": "Amount of Aldehyde (II)", "setting": "[6]; 26 mM phosphate, 24 hours", "value": 0.20, "unit": "Area %"}, {"measurement": "pH", "setting": "[6]; 26 mM phosphate, 24 hours", "value": 7.39}, {"measurement": "Amount of Aldehyde (II)", "setting": "[6]; 26 mM phosphate, 48 hours", "value": 0.25, "unit": "Area %"}, {"measurement": "pH", "setting": "[6]; 26 mM phosphate, 48 hours", "value": 7.38}, {"measurement": "Amount of Aldehyde (II)", "setting": "[6]; no buffer, 0 hours", "value": 0.25, "unit": "Area %"}, {"measurement": "pH", "setting": "[6]; no buffer, 0 hours", "value": 6.01}, {"measurement": "Amount of Aldehyde (II)", "setting": "[6]; no buffer, 24 hours", "value": 0.68, "unit": "Area %"}, {"measurement": "pH", "setting": "[6]; no buffer, 24 hours", "value": 6.32}, {"measurement": "Amount of Aldehyde (II)", "setting": "[6]; no buffer, 48 hours", "value": 0.89, "unit": "Area %"}, {"measurement": "pH", "setting": "[6]; no buffer, 48 hours", "value": 6.48}, {"measurement": "Remains in useable condition", "setting": "[7]; stored at room temperature", "value": "at least 6 months"}, {"measurement": "Shelf life", "setting": "[7]; stored refrigerated (approximately 2 to 8° C.)", "value": "at least 24 months"}]}]}
